The numbers were not newly measured in patent US20040180832A1, “Sustained peptide-release formulation” (Peptech Limited, priority 1996, published 2004), which cites them from elsewhere.

The test system of the series is advanced prostatic cancer. The note with it: monthly subcutaneous injections.

In the case of `CC(C)C[C@H](NC(=O)[C@@H](COC(C)(C)C)NC(=O)[C@H](Cc1ccc(O)cc1)NC(=O)[C@H](CO)NC(=O)[C@H](Cc1c[nH]c2ccccc12)NC(=O)[C@H](Cc1cnc[nH]1)NC(=O)[C@@H]1CCC(=O)N1)C(=O)N[C@@H](CCCNC(=N)N)C(=O)N1CCC[C@H]1C(=O)NNC(N)=O` [goserelin, 3-[5-oxo-L-prolyl-L-tryptophyl-L-seryl-L-tyrosyl-(3-O-tert-butyl)-D-seryl-L-leucyl-L-arginyl-L-prolyl] cabazamide acetate.], the “efficacy in advanced prostatic cancer compared with orchiectomy” value is recorded as “as effective as orchiectomy” and the tolerability entry was “well tolerated”.
